Literature values, collected in patent US12364655B2, “Semisolid oral dispersions comprising active agents” (The Procter & Gamble Company, priority 2019, dated 2025).
Like-named read-outs stand apart in the source and are kept apart here.

Settings: from supplier Safety Data Sheet, supplier Product Data Sheet (estimated) or Wikipedia

NC(N)=O.OO [Urea Peroxide, Urea Hydrogen Peroxide Adduct]
Solubility in Water (number of parts by weight per 100 parts by weight of water): 80 parts by weight per 100 parts by weight of water | Solubility in Water (number of parts by weight per 100 parts by weight of water) (listed as urea peroxide): 80 parts by weight per 100 parts
